Conditions: instrument: DT, single field, calibrated with Agilent tune mix (Agilent)

Structure (SMILES)	collision cross section (N2) ([M+H]+) [Å²]	collision cross section (N2) ([M-H]-) [Å²]	also measured
O=C(COP(=O)(O)O)[C@H](O)[C@H](O)COP(=O)(O)O [D-Ribulose 1,5-bisphosphate]	–	–	collision cross section (N2) ([M+Na-2H]-): 150.9 Å²; collision cross section (N2) ([M+Na]+): 163.3 Å²
OC1OC[C@@H](O)[C@H](O)[C@H]1O (stereo partly drawn) [D-Xylose]	–	–	collision cross section (N2) ([M+Na]+): 134.6 Å²
Nc1ncnc2c1ncn2[C@H]1C[C@H](O)[C@@H](CO)O1 [Deoxyadenosine]	152.3	152.2	–
O=c1nc[nH]c2c1ncn2[C@H]1C[C@H](O)[C@@H](CO)O1 [Deoxyinosine]	151.7	153.4	–
O=P(O)(O)OC[C@H]1O[C@@H](O)C[C@@H]1O [Deoxyribose 5-phosphate]	–	–	collision cross section (N2) ([M+Na]+): 148.4 Å²
CC(C)(COP(=O)(O)OP(=O)(O)OC[C@H]1O[C@@H](n2cnc3c(N)ncnc32)[C@H](O)[C@@H]1O)[C@@H](O)C(=O)NCCC(=O)NCCS [Dephosphocoenzyme A]	238.6	232.51	–
CC(C)[C@@H](C)/C=C/[C@@H](C)[C@H]1CC[C@H]2/C(=C/C=C3\C[C@@H](O)CC[C@@H]3C)CCC[C@]12C [Dihydrotachysterol]	205.8	–	–
CC(C)=CCOP(=O)(O)OP(=O)(O)O [Dimethylallyl pyrophosphate]	–	143.1	–
OC[C@@H](O)[C@H](O)[C@H](O)[C@@H](O)CO [Dulcitol]	–	128.77	collision cross section (N2) ([M+Na]+): 141.7 Å²
CC/C=C\C/C=C\C/C=C\C/C=C\C/C=C\CCCC(=O)O [Eicosapentaenoic acid]	–	178.53	–
C[C@]12CC[C@@H]3c4ccc(OS(=O)(=O)O)cc4CC[C@H]3[C@@H]1CCC2=O [Estrone 3-sulfate]	–	188.85	–
C[C@]12CC[C@@H]3c4ccc(O)cc4CC[C@H]3[C@@H]1CCC2=O [Estrone]	164.3	170.63	–
O=c1cc(-c2ccccc2)oc2ccccc12 [Flavone]	146.7	–	–
Nc1nc(=O)c2nc(CNc3ccc(C(=O)N[C@@H](CCC(=O)O)C(=O)O)cc3)cnc2[nH]1 [Folate]	195.5	–	–
C[C@@H]1OC(OP(=O)(O)OP(=O)(O)OC[C@H]2O[C@@H](n3cnc4c(=O)nc(N)[nH]c43)[C@H](O)[C@@H]2O)[C@@H](O)[C@H](O)[C@@H]1O (stereo partly drawn) [GDP-L-Fucose]	217.2	206.72	–
Nc1nc(=O)c2ncn([C@@H]3O[C@H](COP(=O)(O)OP(=O)(O)O[C@H]4O[C@H](CO)[C@@H](O)[C@H](O)[C@H]4O)[C@@H](O)[C@H]3O)c2[nH]1 [GDP-glucose]	218.9	208.72	–
Nc1nc(=O)c2ncn([C@@H]3O[C@H](COP(=O)(O)OP(=O)(O)O)[C@@H](O)[C@H]3O)c2[nH]1 [GDP]	191.5	–	–
OC[C@H]1O[C@H](OC2[C@@H](O)[C@H](O)C(O)[C@H](O)[C@@H]2O)[C@H](O)[C@@H](O)[C@H]1O (stereo partly specified) [Galactinol]	–	–	collision cross section (N2) ([M+Na-2H]-): 168.98 Å²; collision cross section (N2) ([M+Na]+): 177.7 Å²
O=Cc1cc(O)ccc1O [Gentisaldehyde]	122	119.54	–
N[C@@H](CCC(=O)N[C@@H](CSSC[C@H](NC(=O)CC[C@H](N)C(=O)O)C(=O)NCC(=O)O)C(=O)NCC(=O)O)C(=O)O [Glutathione disulfide]	224.7	–	–
C[N+](C)(C)CCOP(=O)([O-])OC[C@H](O)CO [Glycerophosphocholine]	155.5	–	–
C[C@H](CCC(=O)NCC(=O)O)[C@H]1CC[C@H]2[C@@H]3[C@H](O)C[C@@H]4C[C@H](O)CC[C@]4(C)[C@H]3CC[C@]12C [Glycochenodeoxycholate]	–	198.85	collision cross section (N2) ([M+Na]+): 203.3 Å²
C[C@H](CCC(=O)NCC(=O)O)[C@H]1CC[C@H]2[C@@H]3CC[C@@H]4C[C@H](O)CC[C@]4(C)[C@H]3C[C@H](O)[C@]12C [Glycodeoxycholic acid]	–	197.81	collision cross section (N2) ([M+Na]+): 203.9 Å²
NC(N)=NCC(=O)O [Guanidoacetic acid]	124.8	–	–
Nc1nc(=O)c2ncn([C@@H]3O[C@H](COP(=O)(O)OP(=O)(O)O[C@H]4O[C@H](CO)[C@@H](O)[C@H](O)[C@@H]4O)[C@@H](O)[C@H]3O)c2[nH]1 [Guanosine diphosphate mannose]	–	207.35	collision cross section (N2) ([M+Na]+): 220.9 Å²
CC(C)(COP(=O)(O)OP(=O)(O)OC[C@H]1O[C@@H](n2cnc3c(N)ncnc32)[C@H](O)[C@@H]1OP(=O)(O)O)[C@@H](O)C(=O)NCCC(=O)NCCSC(=O)C[C@@](C)(O)CC(=O)O [HMG-CoA]	–	259.35	–

Structure (SMILES)	collision cross section (N2) ([M+H]+) [Å²]	collision cross section (N2) ([M-H]-) [Å²]	also measured
NCCc1cnc[nH]1 [Histamine]	120	–	–
O=C(O)CC[C@@](O)(CC(=O)O)C(=O)O [Homocitrate]	–	129.99	collision cross section (N2) ([M+Na]+): 145 Å²
O=C(O)CC(C(=O)O)C(O)C(=O)O (stereo unspecified) [Isocitrate]	–	125.26	–
N[C@@H](C[C@@H](O)C(=O)O)C(=O)O [L-Erythro-4-Hydroxyglutamic acid]	135.8	–	collision cross section (N2) ([M-H2O-H]-): 123.86 Å²
C[C@@H]1OC(O)[C@@H](O)[C@H](O)[C@@H]1O (stereo partly drawn) [L-Fucose]	–	–	collision cross section (N2) ([M+Na]+): 144.6 Å²
NC(=O)CC[C@H](N)C(=O)O [L-Glutamine]	–	–	collision cross section (N2) ([M+Na]+): 133.7 Å²
N[C@H](CO)Cc1cnc[nH]1 [L-Histidinol]	128.3	126.11	–
O=C(O)[C@H](O)[C@@H](O)CO [L-Threonate]	–	116.84	–
N[C@@H](Cc1cc(I)c(Oc2cc(I)c(O)c(I)c2)c(I)c1)C(=O)O [L-Thyroxine]	216.2	–	collision cross section (N2) ([M+Na-2H]-): 194.19 Å²
CCCCCCCCCCCC(=O)SCCNC(=O)CCNC(=O)[C@H](O)C(C)(C)COP(=O)(O)OP(=O)(O)OC[C@H]1O[C@@H](n2cnc3c(N)ncnc32)[C@H](O)[C@@H]1OP(=O)(O)O [Lauroyl-CoA]	284	283.18	–
N[C@@H](Cc1cc(I)c(Oc2ccc(O)c(I)c2)c(I)c1)C(=O)O [Liothyronine]	209.7	–	collision cross section (N2) ([M+Na-2H]-): 185.23 Å²
N#CC(O)c1ccccc1 (stereo unspecified) [Mandelonitrile]	128.9	–	–
COc1ccc2[nH]cc(CCNC(C)=O)c2c1 [Melatonin]	154.3	153.53	–
CC1=CC(=O)c2ccccc2C1=O [Menadione (Vitamin K3)]	134.6	–	–
CC1=CC(=O)c2ccccc2C1=O [Menadione]	–	129.79	–
CCCCCCCCCCCCCC(=O)SCCNC(=O)CCNC(=O)C(O)C(C)(C)COP(=O)(O)OP(=O)(O)OC[C@H]1O[C@@H](n2cnc3c(N)ncnc32)[C@H](O)[C@@H]1OP(=O)(O)O (stereo partly specified) [Myristoyl-coenzyme A]	289.9	290.65	–
Cn1cc(C(N)=O)ccc1=O [N1-Methyl-2-pyridone-5-carboxamide]	132.1	–	–
CN(C)c1nc(=O)c2ncn([C@@H]3O[C@H](CO)[C@@H](O)[C@H]3O)c2[nH]1 [N2,N2-Dimethylguanosine]	170.6	169.16	–
CC(=O)Nc1ccn([C@@H]2O[C@H](CO)[C@@H](O)[C@H]2O)c(=O)n1 [N4-Acetylcytidine]	162.7	161.4	–
CC(=O)NCCCC[C@H](N)C(=O)O [N6-Acetyl-L-lysine]	142.3	139.75	–
CC(=O)N[C@H]1C(O)O[C@H](COP(=O)(O)O)[C@@H](O)[C@@H]1O (stereo partly drawn) [N-Acetyl-D-Glucosamine 6-Phosphate]	–	152.83	collision cross section (N2) ([M+Na]+): 164 Å²
CC(=O)N[C@H]1[C@H]([C@H](O)[C@H](O)CO)OC(O)(C(=O)O)C[C@@H]1O (stereo partly specified) [N-Acetylneuraminic acid]	–	–	collision cross section (N2) ([M+Na]+): 168.6 Å²
CC(=O)Nc1ccccc1 [N-Phenylacetamide]	–	124.17	–
NC(=O)N[C@@H](CC(=O)O)C(=O)O [N-carbamoyl-L-aspartate]	–	–	collision cross section (N2) ([M+Na]+): 139.1 Å²
O=C([O-])c1cccnc1 [Nicotinate]	124	–	–
